Measurements reported in PubChem BioAssay (NCI).
Values joined by “and” are separate entries in the source; they are usually repeats but may differ in a detail not shown here. Equal values may be shown once.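 Step 1: Grow cells in 96-well plates. Step 2: Expose to compound for 48 hours at 5 concentrations. Step 3: Interpolate endpoints linearly; if unreached, use highest concentration. GI50 is the concentration that inhibits growth by half. The concentration for full growth arrest is given as TGI.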

Key:
Assay in all cases: growth of human tumour cells (NCI), 48 h
A549 NSCLC = system: A549 NSCLC
CCRF-CEM leukemia = system: CCRF-CEM leukemia
HCT-116 colon = system: HCT-116 colon
HOP-92 NSCLC = system: HOP-92 NSCLC
HS 578T breast = system: HS 578T breast
HT29 colon = system: HT29 colon
OVCAR-8 ovarian = system: OVCAR-8 ovarian
SF-295 CNS = system: SF-295 CNS
SN12C renal = system: SN12C renal
SNB-19 CNS = system: SNB-19 CNS
SW-620 colon = system: SW-620 colon
UACC-257 melanoma = system: UACC-257 melanoma
UACC-62 melanoma = system: UACC-62 melanoma
UO-31 renal = system: UO-31 renal
RXF 393 renal = system: RXF 393 renal
NCI-H522 lung = system: NCI-H522 lung

| SMILES | TGI (A549 NSCLC) | TGI (CCRF-CEM leukemia) | TGI (HCT-116 colon) | TGI (HOP-92 NSCLC) | GI50 (HS 578T breast) | TGI (HS 578T breast) | TGI (HT29 colon) | TGI (OVCAR-8 ovarian) | TGI (SF-295 CNS) | TGI (SN12C renal) | TGI (SNB-19 CNS) | TGI (SW-620 colon) | TGI (UACC-257 melanoma) | TGI (UACC-62 melanoma) | TGI (UO-31 renal) | TGI (RXF 393 renal) | TGI (NCI-H522 lung) |
| --- | --- | --- | --- | --- | --- | --- | --- | --- | --- | --- | --- | --- | --- | --- | --- | --- | --- |
| CC(=O)OCC(OC(C)=O)C(OC(C)=O)C(/C=N\Nc1nc2ccccc2c(=O)[nH]1)OC(C)=O (configuration not stated) | > 100 µM | > 100 µM | > 100 µM | > 100 µM | 40.6 µM and 88.4 µM | > 100 µM | > 100 µM | > 100 µM | > 100 µM | > 100 µM | > 100 µM | > 100 µM | > 100 µM | > 100 µM | > 100 µM |  |  |
| Cn1c(=O)oc2cc(C(=O)CN3CCN(Cc4ccc5c(c4)OCO5)CC3)c(Cl)cc21 |  | > 100 µM | > 100 µM |  |  | > 100 µM |  |  | > 100 µM | > 100 µM | > 100 µM |  |  | > 100 µM | > 100 µM | > 100 µM |  |
| Cc1ccc(C2=NN=C3C(c4ccccc4)=Nc4ccccc4N3C2)cc1 | > 100 µM |  | > 83.7 µM | > 72.9 µM |  | 40 µM | > 81.1 µM | > 100 µM | > 100 µM | > 100 µM | > 78.3 µM | > 100 µM | 33.6 µM | > 100 µM | > 42 µM | 33.7 µM | 26.8 µM |
| N=C(N)SCCSC(=N)N | > 100 µM |  | > 100 µM | > 100 µM |  | > 100 µM | > 100 µM | > 100 µM | > 100 µM | > 100 µM | > 100 µM | > 100 µM | > 100 µM | > 100 µM | > 100 µM | > 100 µM | > 100 µM |
| O=C(O)[C@@]1(Cc2ccc(O)cc2)C[C@@H]2Cc3ccccc3N2N1 | > 100 µM | > 100 µM | > 100 µM | > 100 µM |  | > 100 µM | > 100 µM | > 100 µM | > 100 µM | > 100 µM | > 100 µM | > 100 µM | > 100 µM | > 100 µM | > 100 µM |  | > 100 µM |
| Nc1ccc(-c2nnc(-c3c(Cl)c(Cl)c(Cl)c(Cl)c3-c3nc4ccc(C(=O)c5ccccc5)cc4[nH]3)o2)cc1 | > 100 µM | 70.3 µM | 56.9 µM | > 100 µM |  | > 100 µM | 40.8 µM | > 100 µM | 58.5 µM | 37.7 µM | 67.4 µM | > 100 µM | > 100 µM |  | > 100 µM | 43.2 µM | 47.9 µM |
| CCc1nc2c(n1CC)C(=O)c1ccccc1C2=O | > 100 µM | > 100 µM | > 10 µM | > 100 µM |  | > 100 µM | 63.9 µM | > 100 µM | > 100 µM | > 100 µM | > 100 µM | > 100 µM | 51.4 µM | > 100 µM |  | 51 µM | 96 µM |
| Clc1ccc(-c2cn3c(nc4ccccc43)c(/C=C/c3cccs3)n2)cc1 | > 100 µM | > 100 µM | > 100 µM | > 100 µM |  | > 100 µM | > 100 µM |  |  | > 100 µM | > 100 µM | > 100 µM | > 100 µM | > 100 µM | > 100 µM | > 100 µM |  |
